Assay results from article PMC2690590, “Functional recombinant MHC class II molecules and high-throughput peptide-binding assays” (Immunome Research, 2009).
Like-named read-outs stand apart in the source and are kept apart here. Where no end group is shown, it is not given here.

Key:
[1] = molecular target: T1, DRB3*0301 (DRA*0101/DRB3*0301) (Homo sapiens, UniProt P01903+P79483, A169T/A212P/D57E/G115V/L67V/Q178H/R103Q/R40L/Y55F); assay: Direct LOCI peptide-MHC-II binding assay, DRB3*0301
T1 construct: DRA*01011-181LZFos; DRB3*03011-190LZJunBSP; made in house

[2] = molecular target: T2, DR2a (DRA*0101/DRB5*0101) (Homo sapiens, UniProt P01903+Q30154); assay: Direct LOCI peptide-MHC-II binding assay, DR2a
T2 construct: DRA*01011-181LZFos; DRB5*01011-190LZJunBSP; made in house

DR4 (DRA*0101/DRB1*0401) = molecular target: T3, DR4 (DRA*0101/DRB1*0401) (Homo sapiens, UniProt P01903+P01911, A100K/A169T/F76Y/I96L/K127E/L162R/M171V/N62H/P40V/Q125Y/R42H/S133A/S149N/S66Y/V115G/V209L/W38E); assay: Direct LOCI peptide-MHC-II binding assay, DR4
T3 construct: DRA*01011-181LZFos; DRB1*04011-190LZJunBSP; made in house

[3] = molecular target: T4, DRB1*0813 (DRA*0101/DRB1*0813) (Homo sapiens, UniProt P01903+P01911, A100R/A103L/A169T/F76Y/H45Y/I96L/K41T/L162R/M171V/P40S/Q125H/Q178H/Q39Y/Q99D/R218S/R42G/S66Y/V115G/W38E); assay: Direct LOCI peptide-MHC-II binding assay, DRB1*0813
T4 construct: DRA*01011-181LZFos; DRB1*08131-190LZJunBSP; made in house

I-E^d = molecular target: T5, I-E^d (Mus musculus, UniProt P01904+P01915); assay: Direct LOCI peptide-MHC-II binding assay, I-E^d
T5 construct: I-E^dA1-191LZFos; I-E^dB1-198LZJunBSP; made in house

[4] = molecular target: DP401 (DPA1*0103/DPB1*0401) (Homo sapiens, UniProt P04440+P20036); assay: Direct LOCI peptide-MHC-II binding assay, DP401
DR3 (DRA*0101/DRB1*0301) = molecular target: T6, DR3 (DRA*0101/DRB1*0301) (Homo sapiens, UniProt P01903+P01911, A100K/A102G/A103R/A169T/F55Y/I96L/K41T/L162R/M171V/P40S/Q125H/Q178H/Q39Y/R42S/S66N/T106N/T262R/W38E/Y61H); assay: Direct LOCI peptide-MHC-II binding assay, DR3
T6 construct: DRA*01011-181LZFos; DRB1*03011-190LZJunBSP; made in house

[5] = molecular target: T2, DR2a (DRA*0101/DRB5*0101); assay: Competitive LOCI peptide-MHC-II binding assay, DR2a
[6] = pH 7, 48 h 18°C, read-out: DRB3*0301 affinity
[7] = pH 6-7, 48 h 18°C, read-out: DR3 affinity

Compound | Kd [1] [nM] | Kd [2] [nM] | Kd [3] [nM] | Kd (I-E^d) [nM] | Kd [4] [nM] | Kd (DR3 (DRA*0101/DRB1*0301)) [nM] | IC50 [5] [nM] | Kd (DR4 (DRA*0101/DRB1*0401); DR4 affinity (nM)) [nM] | Kd (I-E^d; I-E^D affinity (nM)) [nM] | Kd ([4]; DP401 affinity (nM)) [nM] | IC50 ([5]; DR2a Komp IC50 (nM)) [nM] | other results
CC(C)C[C@H](NC(=O)CNC(=O)[C@H](Cc1c[nH]c2ccccc12)NC(=O)CNC(=O)[C@@H](NC(=O)[C@@H]1CCCN1C(=O)[C@@H](NC(=O)[C@H](C)NC(=O)[C@H](CC(=O)O)NC(=O)[C@H](C)NC(=O)[C@H](Cc1ccccc1)NC(=O)[C@@H](NC(=O)[C@H](CCC(N)=O)NC(=O)[C@H](CS)NC(=O)[C@H](CC(C)C)NC(=O)[C@@H](N)Cc1ccc(O)cc1)C(C)C)[C@@H](C)O)[C@@H](C)O)C(=O)O | 2060 | 3700 | 2990 | > 5000 | 13 | 69 | > 5000 |  |  |  |  | Kd (DR4 (DRA*0101/DRB1*0401)): 18 nM
CC[C@H](C)[C@H](NC(=O)[C@H](Cc1c[nH]cn1)NC(=O)[C@H](Cc1c[nH]cn1)NC(=O)[C@H](Cc1c[nH]cn1)NC(=O)[C@H](Cc1c[nH]cn1)NC(=O)[C@H](Cc1c[nH]cn1)NC(=O)[C@H](Cc1c[nH]cn1)NC(=O)[C@@H](N)Cc1ccc(O)cc1)C(=O)N[C@@H](CCC(=O)O)C(=O)NCC(=O)N[C@@H](CCCNC(=N)N)C(=O)N[C@@H](CO)C(=O)N[C@@H](Cc1ccccc1)C(=O)N[C@@H](CCC(=O)O)C(=O)N[C@@H](CCCNC(=N)N)C(=O)N[C@@H](Cc1ccccc1)C(=O)N[C@@H](CCC(=O)O)C(=O)N[C@H](C(=O)N[C@@H](Cc1ccccc1)C(=O)N1CCC[C@H]1C(=O)N[C@@H](CCCCN)C(=O)N[C@@H](CCC(=O)O)C(=O)O)[C@@H](C)CC [6xH Influenza A (PR8) HA 109–119] | 1530 | 9 | 181 | 984 | 1 | 1430 | 23 |  |  |  |  | Kd (DR4 (DRA*0101/DRB1*0401)): 1870 nM
HHHHHHIEGRFAALWFRNHFVFGGGTK [6xH Lambda 2(315)] | 1200 | 5 | 8 |  |  | 882 |  | 11 | 26 | 2 | 20 | 
CC[C@H](C)[C@H](N)C(=O)N[C@H](C(=O)N[C@@H](Cc1ccccc1)C(=O)N[C@@H](CCSC)C(=O)N[C@@H](Cc1c[nH]c2ccccc12)C(=O)N[C@@H](C)C(=O)N[C@H](C(=O)N[C@@H](Cc1c[nH]cn1)C(=O)N[C@@H](Cc1c[nH]cn1)C(=O)O)[C@@H](C)CC)C(C)C [Flu HA1194-202] | > 5000 | 167 | 276 | > 5000 | > 5000 | > 5000 | 529 |  |  |  |  | Kd (DR4 (DRA*0101/DRB1*0401)): > 5000 nM
YILLKKILSSRFNQM [Plasmodium Falciparum] | 1 | 4 | 4 |  |  | 32 |  | 94 | 20 | 1 | 2 | Kd (DR4 (DRA*0101/DRB1*0401); KD, DR4): 133 nM; Kd (I-E^d; KD, I-E^d): 14 nM; Kd ([4]; KD, DP401): 0.8 nM; IC50 ([5]; IC50, DR2a inhibition assay): 0.6 nM
CC[C@H](C)[C@H](NC(=O)[C@H](Cc1ccccc1)NC(=O)[C@@H]1CCCN1C(=O)[C@@H](N)Cc1ccc(O)cc1)C(=O)N[C@@H](CCC(=O)O)C(=O)N[C@@H](CCC(N)=O)C(=O)N[C@@H](CCC(=O)O)C(=O)NCC(=O)N1CCC[C@H]1C(=O)N[C@@H](CCC(=O)O)C(=O)N[C@@H](Cc1ccccc1)C(=O)N[C@@H](Cc1ccccc1)C(=O)N[C@@H](CC(=O)O)C(=O)N[C@@H](CCC(N)=O)C(=O)N[C@@H](CCC(=O)O)C(=O)O |  | > 5000 | > 5000 |  |  |  |  |  | > 5000 | > 5000 | > 5000 | Kd [1, 6]: 3230 nM; Kd (DR3 (DRA*0101/DRB1*0301); [7]): 289 nM
YLFFYRKSV [TERT572Y] |  | 2650 | 95 |  |  | > 5000 |  | 1590 | 322 | > 5000 | > 5000 | 
CSCC[C@H](NC(=O)[C@H](CCCNC(=N)N)NC(=O)[C@H](CCSC)NC(=O)[C@H](CCCCN)NC(=O)[C@H](CO)NC(=O)[C@@H](NC(=O)[C@@H]1CCCN1C(=O)[C@H](CCCCN)NC(=O)[C@@H]1CCCN1C(=O)[C@@H]1CCCN1C(=O)[C@H](CCCCN)NC(=O)[C@@H]1CCCN1C(=O)[C@@H](N)CC(C)C)C(C)C)C(=O)N[C@@H](C)C(=O)N[C@H](C(=O)N1CCC[C@H]1C(=O)N[C@@H](CC(C)C)C(=O)N[C@@H](CC(C)C)C(=O)N[C@@H](CCSC)C(=O)N[C@@H](CCC(N)=O)C(=O)N[C@@H](C)C(=O)N[C@@H](CC(C)C)C(=O)N1CCC[C@H]1C(=O)N[C@@H](CCSC)C(=O)N[C@@H](Cc1ccc(O)cc1)C(=O)N[C@@H](Cc1c[nH]cn1)C(=O)N[C@@H](Cc1c[nH]cn1)C(=O)N[C@@H](Cc1c[nH]cn1)C(=O)N[C@@H](Cc1c[nH]cn1)C(=O)N[C@@H](Cc1c[nH]cn1)C(=O)N[C@@H](Cc1c[nH]cn1)C(=O)O)[C@@H](C)O [CLIP 6xH] |  |  |  |  |  |  |  |  |  |  |  | Kd ([1]; read-out: DRB3*0301 affinity): 1 nM; Kd ([2]; read-out: DR2a pH6 affinity): 1 nM; Kd (DR4 (DRA*0101/DRB1*0401); read-out: DR4 affinity): 1 nM; Kd ([3]; read-out: DRB1*0813 affinity): 2 nM; Kd ([4]; read-out: DP401 affinity): 1 nM; Kd (DR3 (DRA*0101/DRB1*0301); read-out: DR3 affinity): 1 nM; IC50 ([5]; competitive LOCI, 4 nM biotin-PEG-HA306–318 agonist, β chain without biotin, α/β 13/5 nM, pH 6-7.5, L243, 48 h 18°C, average of 2–4 measurements, read-out: DR2a Komp IC50): 1 nM
CC[C@H](C)[C@H](NC(=O)CNC(=O)[C@@H](NC(=O)[C@H](Cc1ccccc1)NC(=O)[C@H](CCCCN)NC(=O)[C@H](CO)NC(=O)[C@H](CC(N)=O)NC(=O)[C@H](C)NC(=O)[C@H](CCCCN)NC(=O)[C@@H](NC(=O)[C@H](Cc1ccc(O)cc1)NC(=O)[C@@H](N)CCC(N)=O)[C@@H](C)CC)[C@@H](C)CC)C(=O)N[C@H](C(=O)N[C@@H](CCC(=O)O)C(=O)O)[C@@H](C)O [Clostridium tetanus] | 1 |  |  | 1500 | 56 |  |  |  |  |  |  | 
CSCC[C@H](NC(=O)[C@@H](N)Cc1ccccc1)C(=O)N[C@@H](CO)C(=O)N[C@@H](CCCNC(=N)N)C(=O)N[C@@H](CCCCN)C(=O)N[C@@H](CC(C)C)C(=O)N[C@@H](Cc1c[nH]cn1)C(=O)N[C@@H](CCCNC(=N)N)C(=O)N[C@@H](Cc1ccc(O)cc1)C(=O)O [Hantaan] |  | > 5000 |  | 3 |  |  | 2550 |  |  |  |  | 
FLYGALLLA [MBP] |  | > 5000 | > 5000 |  |  | > 5000 |  | > 5000 | > 5000 | 34 | > 5000 | 
WMARRHAER [Brucella] |  | > 5000 |  | 6 |  |  | > 5000 |  |  |  |  | 
YILFLVKMNALRRLPV |  |  |  |  |  |  |  |  |  |  |  | Kd [1, 6]: 3 nM; Kd ([2]; pH 6, 48 h 18°C, read-out: DR2a pH6 affinity): 5 nM; Kd ([3]; pH 6-7.5, 48 h 18°C, read-out: DRB1*0813 affinity): 78 nM; Kd (I-E^d; 48 h 18°C, read-out: I-E^D affinity): 582 nM; Kd ([4]; pH 7, 48 h 18°C, read-out: DP401 affinity): 45 nM; Kd (DR3 (DRA*0101/DRB1*0301); [7]): 39 nM; IC50 ([5]; pH 6-7.5, 48 h 18°C, read-out: DR2a Komp IC50): 20 nM
